Values quoted from earlier work in patent US20090018125A1, “Pharmaceutical Composition and Its Use” (Tillotts Pharma AG, priority 2004, published 2009).

System: human squamous carcinoma line and multidrug-resistant and carboplatin-resistant variants
Settings: cells pre-treated with GLA

Compound: CCCCC/C=C\C/C=C\C/C=C\CCCCC(=O)O [GLA, gamma-linoleic acid]
- enhancement of vincristine toxicity: up to 40%
- enhancement of toxicity of carboplatin (depending on GLA concentration, human squamous carcinoma and carboplatin-resistant variant cell lines): ≥ 50%
